Measured values taken from patent US20260224534A1, “ALPHA-2-ADRENERGIC AGONISTS FOR IMPROVING VISION” (Bausch + Lomb Ireland Limited, priority 2023, published 2026).

What was measured:
Format in all cases: in vivo, human
[1] = test system: patients with glaucoma or ocular hypertension; test: Phase 1/2 study Part 2: low-luminance ETDRS visual acuity
Excerpt: Low-luminance visual acuity refers to visual acuity determined using the standard Early Treatment Diabetic Retinopathy Study (ETDRS) chart with a 2.0 log unit neutral density filter placed in front of the eye.
(§1) Part 1 was an open-label dose escalation study. The purpose of Part 1 of this study (WB007-001), was to assess the safety, tolerability, and IOP-lowering effects of a single drop of an ophthalmic solution containing [3-[(1S)-1-(1H-imidazole-5-yl)ethyl]-2-methylphenyl]methyl-2,2-dimethylpropanoate (Compound 1) with concentrations ranging from 0.05% to 0.4%. […] In addition to assessing the efficacy of Compound 1 on lowering IOP, the study also assessed the effects of the drug on visual function.
Additional analyses examining the effect of Compound 1 on visual function included low-luminance visual acuity and visual fields.

[2] = test system: patients with glaucoma or ocular hypertension; test: Phase 1/2 study: safety, tolerability and comfort; settings: both doses (0.15%, 0.4%)
Excerpt: as §1

[3] = test system: patients with glaucoma or ocular hypertension; test: Phase 1/2 study Part 2: pupil size
Excerpt: as §1
The effect of Compound 1 on pupil size was assessed at the baseline visit and on Day 14.

[4] = test system: patients with glaucoma or ocular hypertension; test: Phase 1/2 study Part 2: double-masked, randomized, active controlled, ocular hypotensive efficacy (IOP), twice daily; settings: for mean change from baseline in IOP, primary endpoint: Part 2, Day 14, Hour 2, study eye; for IOP-lowering effect, mean change from baseline in the study eye at all postbaseline timepoints: Part 2, both Compound 1 groups (0.15%, 0.4%) p≤0.007, Timolol p≤0.004
[5] = test system: patients with glaucoma or ocular hypertension; test: Phase 1/2 study Part 2: visual field mean deviation; settings: for visual field change in mean deviation: non-study eye, Day 14; for visual field mean deviation change from Baseline at Day 14: study eyes, positive change = improvement; for Improvement ≥1 dB in Study Eye, number of patients / Improvement ≥1 dB in Study Eye, percentage of patients / Improvement ≥1 dB in Treated Non-Study Eye, number of patients / Improvement ≥1 dB in Treated Non-Study Eye, percentage of patients: visual field

For `Cc1c(COC(=O)C(C)(C)C)cccc1[C@H](C)c1c[nH]cn1` [Compound 1, [3-[(1S)-1-(1H-imidazole-5-yl)ethyl]-2-methylphenyl]methyl-2,2-dimethylpropanoate], the “percentage of subjects achieving an increase in ETDRS visual acuity of 15 or more letters under low luminance on at least one study visit” value ([1]; non-study eye, 0.15%) was 17.4%, the “percentage of subjects achieving an increase in ETDRS visual acuity of 15 or more letters under low luminance on at least one study visit” value ([1]; non-study eye, 0.4%) was 25.0% and the “effect on low luminance visual acuity” value ([1]; patients receiving 0.15% or 0.4%) was “Dose related improvements in low luminance visual acuity”. For the same molecule, the “percentage of subjects achieving an increase in ETDRS visual acuity of 15 or more letters under low luminance on at least one study visit” value ([1]; study eye, 0.15%) was 8.7%, the “percentage of subjects achieving an increase in ETDRS visual acuity of 15 or more letters under low luminance on at least one study visit” value ([1]; study eye, 0.4%) was 16.7% and the safety and tolerability [2] was “safe and well-tolerated”. The “effect on pupil size” value ([3]; either dose (0.15%, 0.4%)) was “no meaningful decrease in pupil size”, the “mean change in pupil size from Baseline to Day 14 at Hour 0” value (shortened to “mean change in pupil size from Baseline”) ([3]; study eyes, 0.15%) was 0.0 mm and the “mean change in pupil size from Baseline” value ([3]; study eyes, 0.4%) was −0.1 mm. The “mean change in pupil size from Baseline” value ([3]; treated non-study eyes, 0.15%) was 0.0 mm, the “mean change in pupil size from Baseline” value ([3]; treated non-study eyes, 0.4%) was −0.1 mm and the “mean change from baseline in IOP, primary endpoint” value (from here on “mean change from baseline in IOP”) ([4]; 0.15% twice daily) was −4.9±1.8 mm Hg. For the same molecule, the “mean change from baseline in IOP” value ([4]; 0.4% twice daily) was −5.1±2.5 mm Hg, the “IOP-lowering effect, mean change from baseline in the study eye at all postbaseline timepoints” value [4] was “statistically significant IOP-lowering effects” and the “visual field change in mean deviation” value ([5]; 0.15%) was 0.4±1.5 dB. For the same molecule, the “visual field change in mean deviation” value ([5]; 0.4%) was −0.2±1.4 dB, the “visual field mean deviation change from Baseline at Day 14” value (“visual field mean deviation change” for short) ([5]; 0.15%) was 0.2±1.2 dB and the “visual field mean deviation change” value ([5]; 0.4%) was −0.5±2.3 dB. For the same molecule, the “Improvement ≥1 dB in Study Eye, number of patients” value ([5]; 0.15%) was 9 patients, the “Improvement ≥1 dB in Study Eye, percentage of patients” value ([5]; 0.15%) was 39% and the “Improvement ≥1 dB in Treated Non-Study Eye, number of patients” value ([5]; 0.15%) was 7 patients. The “Improvement ≥1 dB in Treated Non-Study Eye, percentage of patients” value ([5]; 0.15%) was 30%, the “Improvement ≥1 dB in Study Eye, number of patients” value ([5]; 0.4%) was 6 patients and the “Improvement ≥1 dB in Study Eye, percentage of patients” value ([5]; 0.4%) was 25%. For the same molecule, the “Improvement ≥1 dB in Treated Non-Study Eye, number of patients” value ([5]; 0.4%) was 6 patients and the “Improvement ≥1 dB in Treated Non-Study Eye, percentage of patients” value ([5]; 0.4%) was 25%.
`CC(C)(C)NC[C@H](O)COc1nsnc1N1CCOCC1` [Timolol, timolol, reference compound] was tested, and the “percentage of subjects achieving an increase in ETDRS visual acuity of 15 or more letters under low luminance on at least one study visit” value ([1]; non-study eye, timolol 0.5%) was 8.3%, the “percentage of subjects achieving an increase in ETDRS visual acuity of 15 or more letters under low luminance on at least one study visit” value ([1]; study eye, timolol 0.5%) was 0% and the “mean change in pupil size from Baseline” value ([3]; study eyes, Timolol 0.5%) was −0.1 mm. For the same molecule, the “mean change in pupil size from Baseline” value ([3]; treated non-study eyes, Timolol 0.5%) was −0.1 mm, the “mean change from baseline in IOP” value ([4]; 0.5% timolol ophthalmic solution) was −6.0±3.0 mm Hg and the “IOP-lowering effect, mean change from baseline in the study eye at all postbaseline timepoints” value [4] was “statistically significant IOP-lowering effects”. The “visual field change in mean deviation” value ([5]; Timolol 0.5%) was −2.0±3.4 dB, the “visual field mean deviation change” value ([5]; Timolol 0.5%) was −1.2±2.3 dB and the “Improvement ≥1 dB in Study Eye, number of patients” value ([5]; Timolol 0.5%) was 2 patients. For the same molecule, the “Improvement ≥1 dB in Study Eye, percentage of patients” value ([5]; Timolol 0.5%) was 17%, the “Improvement ≥1 dB in Treated Non-Study Eye, number of patients” value ([5]; Timolol 0.5%) was 0 patients (0%) and the “Improvement ≥1 dB in Treated Non-Study Eye, percentage of patients” value ([5]; Timolol 0.5%) was 0 patients (0%).
